In US8691764B2, “Inhibitors of NF-κB activity” (The Research Foundation for the State University of New York, priority 2007, dated 2014):

How the values were obtained:
NF-κB p65 [1] = experiment: Co-localization of annexin 1 and p65 in intestinal epithelial cells of treated mice; format: in vivo; conditions: NO-ASA 100 mg/kg, 7 days
Method: (§1) A mouse model of multiple intestinal neoplasia, the Min mice, and the congenic parent wild-type mice were used to test the in vivo action of NO-ASA in the induction of annexin 1. Both wild-type and Min mice were treated for 7 days with vehicle or NO-ASA 100 mg/kg. After 7 days of treatment, the mice were sacrificed and the epithelial cells were evaluated as in Example 6 by confocal microscopy.

HT-29 cells = experiment: Apoptosis, Cell Death Detection ELISA, HT-29 cells; format: cell-based, human
Method: Apoptosis was determined using the Cell Death Detection ELISA^PLUS assay kit according to the manufacturer's protocol (Roche, Indianapolis, Ind.). Briefly, the cells were treated with either NO-ASA or Dex for 3 h. Cells were harvested and washed three times with PBS. The cell pellet was resuspended with lysis buffer and incubated for 30 min at RT. Cell […] at 200×g for 10 min. The ELISA assay was performed using 20 μl cell lysate and 80 μl Immunoreagent (containing 72 μl Incubation Buffer, 4 μl Anti-histone-biotin Solution, and 4 μl Anti-DNA-POD Solution) per micro-plate well. The micro-plate was covered with an adhesive foil and incubated on a shaker under gentle shaking at 200 rpm for 2 h at RT. The solution in each well was removed thoroughly by tapping and the pellets were rinsed three times with 200 μl Incubation Buffer. […] The absorbance was measured at 405 nm using the SpectraMax micro-plate reader (Molecular Devices, Sunnyvale).
Briefly, annexin 1 cDNA clones (OreGen) or the PCMV6XL5 vector, as a negative control, were transiently transfected into BxPC-3 cells grown to 40-60% confluency using Lipofectamine according to the product protocol (Invitrogen). […] NF-κB activity was subsequently measured by the TransBinding NF-κB Assay Kit and ELISA as described in Example 2. […]

NF-κB = NF-κB activity ELISA, HT-29 cells; format: cell-based, human; conditions: 3 h
NF-κB p65 [2] = experiment: Co-immunoprecipitation of annexin 1 with p65, BxPC-3 cells; format: cell-based, human; conditions: 3 h, NO-ASA 20 μM or Dex 4 μM
Method: (§2) The gel shift assays were carried out according to the manufacturer's protocol (Panomics). Nuclear proteins (10 μg) from each sample were mixed with 10 ng biotinylated p65 double-stranded oligonucleotide probes (5′-[…]-3′ and its complement) (SEQ ID NO:9) in the presence of 1 μg Poly(I/C) DNA. The mixture was incubated at room temperature for 30 min. The binding complex was then resolved using a 6% polyacrylamide/glycerol gel in 0.5% Tris-borate-EDTA, transferred onto a nylon membrane, and fixed on the membrane by UV cross-linking The biotin-labeled probe was detected with streptavidin-horseradish peroxidase. Co-immunoprecipitation was performed as follows: about 500 μg of cell extracts were incubated overnight with 5 μg of agarose-conjugated anti-p65 (Santa Cruz Biotechnology) or anti-annexin 1 antibody (Santa Cruz, Calif.). The precipitate was washed five times with washing buffer (Santa Cruz Biotechnology), dissolved in 2× Laemmli buffer, boiled, and separated by SDS-PAGE and detected by Western blot analysis using ECL™ (Amersham Biosciences) as described above. Control experiments were performed by using rabbit IgG for p65 and mouse IgG2b for annexin 1, respectively (Santa Cruz Biotechnology).

NF-κB p65 [3] = experiment: Co-immunoprecipitation of annexin 1 with p65, HT-29 cells; format: cell-based, human; conditions: 3 h, NO-ASA 20 μM or Dex 4 μM
Method: as §2

NF-κB p65 [4] = experiment: Confocal microscopy co-localization of annexin 1 and p65, BxPC-3 cells; format: cell-based, human; conditions: 3 h, NO-ASA 20 μM or Dex 4 μM
Method: BxPC-3 cells were seeded on cover-glasses in a 12-well plate for 24 h. The cells were exposed to 10 or 20 μM NO-ASA or 2 or 4 μM Dex for 3 h, fixed with 4% paraformaldehyde in PBS containing 30 mM sucrose, permeabilized with 0.2% saponin in PBS containing 30 mM sucrose, and blocked with 5% normal goat serum in PBS containing 1% BSA. The cells were incubated with mouse monoclonal IgG2b anti-annexin 1 (Santa Cruz Biotechnology) and rabbit monoclonal IgG anti-p65 (Cell Signaling, MA) at RT for 1 h. After three washes with PBS containing 1% BSA, the cells were incubated with Alexa555 conjugated donkey anti-mouse IgG (Molecular Probes) and Alexa 488 conjugated goat anti-rabbit IgG (Molecular Probes) at RT for an hour. Images were acquired with a Zeiss LSM 510 META NLO Two-Photon Laser Scanning Image Confocal Microscope and the colocalization scores were generated by the Colocalization Macro program. The control experiments were performed using non-specific mouse IgG2b and/or rabbit IgG. Red fluorescence localized annexin 1, green fluorescence localized p65 (NF-κB) and co-localization of the two proteins generated yellow fluorescence.

annexin 1 = experiment: Annexin 1 levels in small intestine epithelial cells of treated Min and wild-type mice; format: in vivo; conditions: NO-ASA 100 mg/kg or Dex 10 mg/kg daily for 7 days
Method: To assess whether these changes occur in vivo, the inventors studied isolated small intestine epithelial cells from Min mice and the corresponding wild type mice C57BL/6J (of which the Min mice are a congenic derivative) treated with NO-ASA 100 mg/kg or Dex 10 mg/kg daily for 7 days. Min (multiple intestinal neoplasia), a mutant allele of the murine APC (adenomatous polyposis coli) locus, encodes a nonsense mutation at codon 850. Heterozygous Min mutants spontaneously develop tumors in the intestine and represent a model of intestinal carcinogenesis (M. Lipkin et al., Ann. N.Y. Acad. Sci. 889:14-19 (1999); A. Moser, H. Pitot, W. Dove, Science 247:322-324 (1990)). The levels of annexin 1 were increased in both Min and wild-type mice treated with either NO-ASA or Dex (FIG. 7A and FIG. 8A). The induction of annexin 1 by NO-ASA or Dex was accompanied by the inhibition of NF-κB activity (FIGS. 7B and 8B).
as §1

nitric oxide-donating aspirin [NO-ASA] was tested, and the “colocalization of annexin 1 and p65 in intestinal cells” value (NF-κB p65 [1]; Min mice) was “greatly enhanced”, the “colocalization of annexin 1 and p65 in intestinal cells” value (NF-κB p65 [1]; wild type mice) was “modest but significant colocalization” and the “induced cell apoptosis after knock-down of annexin 1 by specific siRNA” value (HT-29 cells; HT-29 cells (FIG. 3D)) was “completely abrogated”. For the same substance, the cell apoptosis (HT-29 cells; HT-29 cells, 3 h) was “induced”, the NF-κB activity (NF-κB) was “inhibited NF-κB activity in a concentration-dependent manner” and the “co-immunoprecipitation of annexin 1 with p65” value (NF-κB p65 [2]) was “co-immunoprecipitated with p65”. For the same substance, the “co-immunoprecipitation of annexin 1 with p65” value (NF-κB p65 [3]) was “co-immunoprecipitated with p65”, the “co-localization of annexin 1 and p65” value (NF-κB p65 [4]) was “co-localize most strongly in the nucleus” and the “levels of annexin 1” value (annexin 1; Min mice) was “increased”. The “levels of annexin 1” value (annexin 1; wild-type mice) was “increased”.
